Patent US10980768B2, “Composition containing carboplatin and use” (SYN-NAT PRODUCTS ENTERPRISE LLC, priority 2015, dated 2021)
Where two headings read alike, the source gives them in different places.

What was measured:
[1] = test system: HEK293 cells; test: Cell viability (MTS) assay in HEK293 cells, renal adenocarcinoma study; assay type: cell-based, human; settings: HEK293 normal embryonic kidney cells
[2] = test system: HL-7002 cells; test: Cell viability (MTS) assay in HL-7002 cells, renal adenocarcinoma study
[3] = test system: ACHN cells; test: Cell viability (MTS) assay in ACHN cells, renal adenocarcinoma study; assay type: cell-based; settings: ACHN renal carcinoma cells, OD490 cell viability
From the text: (§1) Cell culture: A498 and ACHN cells were purchased from Tongbai Bio (Shanghai, China).

[4] = test system: A498 cells; test: Cell viability (MTS) assay in A498 cells, renal adenocarcinoma study; assay type: cell-based; settings: A498 renal carcinoma cells, OD490 cell viability
From the text: as §1

[5] = test system: HL-60 cells; test: Cell viability (MTS) assay in HL-60 cells, leukemia study; assay type: cell-based; settings: HL-60 human promyelocytic leukemia cells, OD490 cell viability
[6] = test system: HEK293 cells; test: Cell viability (MTS) assay in HEK293 cells, leukemia study; settings: for IC50: Homo sapiens, HEK293; for toxicity: HEK293 cells, leukemia study, result in words
[7] = test system: HL-7002 cells; settings: leukemia study; for IC50: HL-7002 human fetal hepatic cells
Protocol: After comparison of OD490 values of the tested agents and the control agents, an index of relative repression rate of cell proliferation was obtained. The IC50 value was calculated by using the SPSS16.0 software.
The cells were cultured in RPMI+5% Fetal Bovine Serum (FBS).
Cells treated with the solvents were used as negative controls, and carboplatin, etiposide and MTX were used as the positive controls. The cells were monitored daily, and the cell viability was evaluated with the Promega CellTiter 96 AQueous One Solution Cell Proliferation Assay (Promega, Madison, Wis., USA) according to the manufacture manuals. The cell viability was monitored at OD490 reading in a bio-spectrometer (Perkin Elmer, Walthan, Mass., USA).
Data analysis: The OD490 reading data were collected hourly from 1 h to 4 h after the addition of lysis buffer. The index of cell growth repression ratio was obtained by comparing the OD490 data of treatment to the negative control. The drug response rate IC50 was calculated with the SPSS 16.0 software.

[8] = test system: K562 cells; test: Cell viability (MTS) assay in K562 cells, leukemia study; assay type: cell-based, human; settings: for toxicity: K562 cells, result in words; for IC50: K562 human myelogenous leukemia cells, OD490 cell viability
[9] = test system: melanoma; test: Case of a melanoma patient with multiple metastases in the brain and adrenal gland treated with DCP solution; assay type: in vivo, human
From the text: The following case summarizes DCP's pharmaceutical use on a melanoma patient with multiple metastases in the brain and adrenal grand. A metastatic tumor mass firstly was detected at the right frontal and parietal lobe of a patient's brain by MRI, and was removed by surgery in one month later. However, a new tumor mass with edema around it was detected at the left of parietal lobe. The tumor grew bigger, and the edema around the tumor became worse about two months after the new tumor was detected. The patient was treated with DCP solution (150 mg of DCP in 250 mL aqueous solution one time for every three days) for about three weeks.
The left lateral ventricle was compressed. The sign of removed tumors could be distinguished at the right frontal and parietal lobe, and the postoperative repair was found in the right frontal parietal bone. The midline structure shifted to the right side.
After treatment with DCP solution for about three weeks, the patient was examined (FIG. 10). […] The tumors at the right frontal and parietal lobe were removed, and the midline structure was normal.

[10] = HL-7002 normal hepatocytes, renal adenocarcinoma study
[11] = after DCP solution for about three weeks
[12] = melanoma brain metastasis, 150 mg DCP in 250 mL every three days for about three weeks

Molecule | IC50 [5] [µM] | IC50 [6] [µM] | toxicity [8] | IC50 [1] [µM] | IC50 [2, 10] [µM] | IC50 [3] [µM] | toxicity [6] | IC50 [4] [µM] | IC50 [7] [µM] | IC50 [8] [µM] | also measured
O=c1[nH]cc(F)c(=O)[nH]1 [5-FU, fluorouracil] | – | – | – | – | – | – | – | – | – | – | IC50 ([1]; Homo sapiens): 45 µM; IC50 ([2]; Homo sapiens, Hepatocyte): 356 µM; IC50 ([3]; Homo sapiens): 6.45 µM; IC50 ([4]; Homo sapiens): 18.2 µM
CN(Cc1cnc2nc(N)nc(N)c2n1)c1ccc(C(=O)N[C@@H](CCC(=O)O)C(=O)O)cc1 [MTX, Methotrexate] | 15.3 | 17.6 | did not show any toxicity | – | – | – | – | – | – | – | toxicity ([7]; HL-7002 cells, result in words): little toxicity
N.N.O=C([O-])C1(C(=O)[O-])CCC1.[Pt+2] [carboplatin] | 17.3 | – | – | 410 | 1410 | 11 | no toxicity | 18.4 | 503 | 1210 | –
COc1cc([C@@H]2c3cc4c(cc3[C@@H](O[C@@H]3O[C@@H]5CO[C@@H](C)O[C@H]5[C@H](O)[C@H]3O)[C@H]3COC(=O)[C@H]23)OCO4)cc(OC)c1O [etoposide] | 15.3 | 359 | did not show any toxicity | – | – | – | – | – | 512 | – | –
dicycloplatin [DCP] | 18.6 | – | – | 463 | 1470 | 15.4 | no toxicity | 20.9 | 503 | 812 | edema around the tumor, post-chemo CT [9, 11]: significantly relieved; tumor mass at the left of parietal lobe, post-chemo CT vs pre-chemo CT [9, 11]: shrunk; edema around the tumor by MRI [9, 12]: relieved; tumor mass by MRI [9, 12]: shrunk; cellular toxicity lower than 5-FU ([2]; HL-7002 and HEK293 normal cells, compared to 5-FU): 4 fold
